Like-named read-outs stand apart in the source and are kept apart here.
Columns and labels:
potassium channel Kv1.5 [1] = biological target: T1, potassium channel Kv1.5 (Homo sapiens, UniProt P22460); experiment: Kv1.5 ion channel inhibitory experiment (whole-cell patch clamp, CHO cells); format: cell-based
T1 construct: expressed in transfected cells; host or cells: Chinese hamster ovary (CHO) cells
Method: Cell preparation: the day before the experiment, digestion of Chinese hamster ovary (CHO) cells (Sigma Chemical Co., St. Louis, MO, USA) with a density of 60–80% by trypsin, and split into some small glass plates, which placed in 35 mm petri dish, then added 10% fetal bovine serum (FBS) (Gibco, CA, USA), and Dulbecco’s modified eagle medium (DMEM) (HyClone, Logan, UT, USA) culture medium without P/S was cultured overnight in an incubator [35, 36, 37] (Supplementary Materials 1.3.1).
Electrophysiology: the cells were transferred to a perfusion tank and perfused with extracellular fluid. The intracellular fluid (mM) was: K Aspartate, 130; MgCl2, 5; EGTA 5; HEPES, 10; Tris-ATP 4; pH 7.2 (KOH titration). The intracellular fluid was stored in small portions in a refrigerator at −80 °C and thawed on the day of the experiment. The electrodes were filled with intracellular fluid and drawn with PC-10 (Narishige, Japan). Whole-cell patch-clamp recording, noise is filtered using one-fifth of the sampling frequency. The cells were clamped at −80 mV and then depolarized to 20 mV with a square wave lasting 2 s to obtain Kv1.5 current. This procedure is repeated every 20 s. After it was stabilized, compound 1, compound 2, and acacetin were perfused, and when the reaction was stabilized, the strength of the blocking was calculated (Supplementary Materials 1.3.1). […]
detection at 190 nm) to afford twenty‐one subfractions (F.D.1‐21). […]
Electrophysiology. […] After it was stabilized, compound 1, compound 2, and acacetin were perfused, and when the reaction was stabilized, the strength of the blocking was calculated.
Data analysis and statistics. […] The IC50 value was determined by fitting the data points to the equation. […]
Figure S1.3.1.1. (A) Kv1.5 traces elicited by 5 s pulses from −80 to + 20 mV and tail currents recorded at −80 mV in the absence and presence of 0.1 μM, 0.3 μM, 1 μM, 3 μM, 10 μM, and 30 μM neo‐ […]

Artemia salina = experiment: Brine shrimp toxicity (lethality) assay; format: in vivo; settings: 24 h; for survival at 0.1 µM / survival at 1 µM / survival at 10 µM / survival at 30 µM: Artemia salina, read-out: Percentage of Survival of Artemia salina after 24 h
Method: The lethality assay of brine shrimp A. salina was developed by Vanhaecke et al.. […] Commercially available A. salina or brine shrimp cysts were purchased and cultivated in 3.2% of saline water. Before cultivation, the saline was aerated, and then cysts were kept at room temperature for 24 h. For toxicity screening, hatched larvae were collected and introduced in saline water. Add 0.9% saline water and approximately the same number of larvae 30 per well to make a 96-wells test culture plate. ATXs with 0.1 μM, 1 μM, 10 μM, 30 μM were added to the test culture plate, while the equal volume of dimethyl sulfoxide (DMSO) (Aladdin, Shanghai, China) and dichloromethane (Aladdin, Shanghai, China) were added as blank control test and positive control separately. After 24 h at 25 °C, the percent of survival of A. salina was calculated (Supplementary Materials 1.3.2).
Figure S1.3.1.2. […]
Figure S1.3.1.3. […]
1.3.2. Brine Shrimp Cytotoxicity Assay
Commercially available Artemia salina (A. salina) or brine shrimp cysts were purchased and cultivated in 3.2% of saline water. Before cultivation, the saline was aerated, and then cysts were kept at room temperature for 24 h. For toxicity screenin g, hatched larvae were collected and introduced in saline water. Add saline water and equivalent larvae in per well of 96 wells to make test culture plate.
Aplysiatoxins with 0.1 μM, 1 μM, 10 μM, 30 μM was added to test culture plate, while DMSO and dichloromethane were added as blank control test and positive control separately. After 24 h in 25 °C, the percent of survival of A. salina was calculated. […]

potassium channel Kv1.5 [2] = biological target: T1, potassium channel Kv1.5; settings: read-out: IC50, inhibitory activity against Kv1.5, cited from earlier work
protein kinase C (PKC) = settings: ref [20],[21],[34]; cited from earlier work

T1 sequence (P22460 whole entry): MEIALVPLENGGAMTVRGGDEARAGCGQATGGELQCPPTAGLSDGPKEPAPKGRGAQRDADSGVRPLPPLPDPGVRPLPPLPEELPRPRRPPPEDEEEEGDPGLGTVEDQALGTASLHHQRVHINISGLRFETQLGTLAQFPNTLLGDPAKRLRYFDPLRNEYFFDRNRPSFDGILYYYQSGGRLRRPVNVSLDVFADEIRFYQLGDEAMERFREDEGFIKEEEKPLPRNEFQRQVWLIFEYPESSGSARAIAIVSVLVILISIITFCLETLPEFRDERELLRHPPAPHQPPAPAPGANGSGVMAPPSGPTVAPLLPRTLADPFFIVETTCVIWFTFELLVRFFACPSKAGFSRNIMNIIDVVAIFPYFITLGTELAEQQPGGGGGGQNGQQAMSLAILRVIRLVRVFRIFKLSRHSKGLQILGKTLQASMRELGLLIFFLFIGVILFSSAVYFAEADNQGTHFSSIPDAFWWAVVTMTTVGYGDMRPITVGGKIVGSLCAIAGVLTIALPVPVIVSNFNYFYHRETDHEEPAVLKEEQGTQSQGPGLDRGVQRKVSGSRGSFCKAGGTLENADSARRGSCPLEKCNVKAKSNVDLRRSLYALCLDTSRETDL

| Compound | effect on survival of A. salina (in words) (Artemia salina; 30 µM) | survival at 0.1 µM (Artemia salina) [%] | survival at 1 µM (Artemia salina) [%] | survival at 10 µM (Artemia salina) [%] | survival at 30 µM (Artemia salina) [%] | concentration at which survival of A. salina began to be influenced (Artemia salina) [µM] | further results |
| --- | --- | --- | --- | --- | --- | --- | --- |
| COC(CCC(C)C1OC2(C=CC1C)OC(C)(C(=O)CC(=O)OC1CC(=O)OC1C)CC2(C)C)c1cccc(O)c1 (centres unmarked) [Compound 2, neo-debromoaplysiatoxin H] | no apparent effect | 97.3 ± 2.38 | 98.9 ± 1.93 | 97.3 ± 4.62 | 95.5 ± 1.93 | – | IC50 (potassium channel Kv1.5 [1]): 1.46 ± 0.14 µM |
| COC(CCC(C)C1OC23CC(OC(=O)CC(C(C)O)OC(=O)CC(=C(C)CC2(C)C)O3)C1C)c1cccc(O)c1 (centres unmarked) [Anhydro DAT, anhydrodebromoaplysiatoxin] | – | 94 ± 3.46 | 91.3 ± 6.94 | 0 | 0 | 10 | – |
| CO[C@@H](CC[C@H](C)[C@H]1O[C@@]23C[C@H](OC(=O)C[C@H]([C@@H](C)O)OC(=O)C[C@](O)(O2)[C@H](C)CC3(C)C)[C@@H]1C)c1cccc(O)c1 [DAT, debromoaplysiatoxin] | – | – | – | – | – | 0.1 | survival at 0.1 µM (Artemia salina; 0.1 µM): 70.9 ± 6.3%; survival at 1 µM (Artemia salina; 1 µM): 0%; survival at 10 µM (Artemia salina; 10 µM): 0%; survival at 30 µM (Artemia salina; 30 µM): 0%; IC50 (potassium channel Kv1.5 [2]; ref [33]): 1.28 ± 0.08 µM; PKC activation (in words) (protein kinase C (PKC)): strong PKC activation |
| COC(CCC(C)C1OC23CC(OC(=O)CC(C(C)O)OC(=O)CC(OC)(O2)C(C)CC3(C)C)C1C)c1cccc(O)c1 (centres unmarked) [3-OCH3 DAT, 3-methoxydebromoaplysaitoxin] | – | 94.5 ± 1.87 | 85.8 ± 6.3 | 0 | 0 | 10 | – |
| COc1ccc(-c2cc(=O)c3c(O)cc(O)cc3o2)cc1 [acacetin] | – | – | – | – | – | – | IC50 (potassium channel Kv1.5 [1]; Kv1.5 expression in CHO cells, holding potential −80 mV, mean ± SEM of 3 to 5 measurements, Hill fit, read-out: IC50, inhibitory effect on Kv1.5 current): 5.96 ± 0.56 µM |
| COC(CCC(C)C1OC2(C=CC1C)CC(=O)C(C)CC2(C)C)c1cccc(O)c1 (centres unmarked) [OAT F, osciliatoxin F] | no apparent effect | 97.5 ± 2.2 | 98.8 ± 1.99 | 95.3 ± 1.92 | 85.5 ± 2.91 | – | – |
| CO[C@@H](CC[C@H](C)[C@H]1O[C@@]23C[C@H](OC(=O)C2=C(O)[C@H](C)CC3(C)C)[C@@H]1C)c1cccc(O)c1 [NEO-B, neo-debromoaplysiatoxin B] | – | – | – | – | – | – | IC50 (potassium channel Kv1.5 [2]; ref [20],[21],[33]): 0.3 ± 0.05 µM |
| oscillatoxin E [OAT E] | – | – | – | – | – | – | IC50 (potassium channel Kv1.5 [2]; ref [33]): 0.79 ± 0.03 µM |
| COC(CCC(C)C1OC23CC(OC(=O)CC(C(C)O)OC(=O)CC4(CC2(C)CC4(C)O)O3)C1C)c1cccc(O)c1 (centres unmarked) [Compound 1, neo-debromoaplysiatoxin G] | no apparent effect | 98 ± 3.4 | 92.6 ± 1.54 | 92.4 ± 4.71 | 91.8 ± 7.73 | – | IC50 (potassium channel Kv1.5 [1]): 1.79 ± 0.22 µM |
| COC(CCC(C)C1OC(=O)C(C)(C)CC(C)=C(CC(=O)OC2CC(=O)OC2C)C(=O)CC1C)c1cccc(O)c1 (centres unmarked) [NEO-C, neo-debromoaplysiatoxin C] | – | 98.7 ± 2.31 | 99 ± 1.65 | 98.9 ± 1.92 | 94.9 ± 5.27 | – | – |
